The subject of series [1] is insulin-stimulated glycogen synthesis in soleus muscle. The series can be described thus: Soleus muscle assay (inhibition of insulin-stimulated glycogen synthesis). The series is classed as cell-based, rat. The method, then:
Concentrations of peptide dissolved in carrier-free buffers are determined by quantitative amino acid analysis, as described therein. The ability of compounds to act as agonists in this assay is determined by measuring EC50 values. […] Similar results were obtained with other agonist compounds listed above.

The conditions of series [2]: rats, rabbits, humans with Paget's disease; cited from earlier work.
Series [3] can be described thus: Oral glucose tolerance test in dogs during amylin infusion (Example 1). The series is classed as in vivo, dog. The protocol:
Mongrel dogs (9 males, 12-17 kg wt. range) were used for this study. All animals were fasted overnight prior to each study. Each animal served as its own control for all protocols. Animals were equilibrated for 30-60 minutes prior to the start of each protocol.
25% glucose (1 gm/kg) was administered by mouth at t=0 minutes. […] Samples for insulin, glucose and lactate were obtained at 15 minutes intervals from t=−45 to t=180 minutes.

Series [4] in a line: Plasma amylin concentration after subcutaneous rat amylin (immuno-enzymometric assay). The series is classed as in vivo. Conditions: sc, 1 μg, Peak plasma amylin concentration, 1 μg s.c., 20 min. The protocol:
The plasma from 250 μL samples collected at 10 min intervals was separated and frozen at −20° C. for analysis by a 2-site immuno-enzymometric assay developed in-house.
To perform the immunoassay, black microtiter plates (Dynatech, Chantilly, Va.) were coated with the antibody F024-4.4 [Phelps JL, Blase E, Koda JE, unpublished] by overnight incubation at 4° C. with 20 μg antibody per mL in 50 mM carbonate at pH 9.6. Plates were washed with 0.05 M Tris/0.15 M sodium chloride/0.02% sodium azide/0.1% Tween 20 (TBS/Tween), and blocked with 1.0% nonfat dry milk powder in the same carbonate buffer for one hour at room temperature. Samples were thawed on ice, and diluted in 4% BSA/200 mg/dl bovine cholesterol supertrate (Miles Pentex reagents, Miles Laboratories, Kankakee, Ill.) if necessary. Samples or standards were added to the coated and blocked plates and incubated for one hours at room temperature. After washing, the F025-27 detection antibody conjugated to alkaline phosphatase was added. […] Bound enzyme was detected by incubation of the plates with the fluorescent substrate 4-methylumbelliferyl phosphate at 50 ug/ml in 1M diethanolamine/0.5 mM MgCl, pH 9.8 for 40 minutes at room temperature. The fluorescent signal was measured with a Dynatech Microfluor plate reader, and data analyzed on Multicalc software (Wallac, Gaithersburg, Md.). […]

For series [5] the following is noted: cited from earlier work.
The test system of series [6] is glucose absorption from the small intestine. The series can be described thus: Glucose absorption from duodenum / perfused small bowel in anesthetized rats. The series is classed as in vivo, rat. An excerpt: Because the studies involved anesthetized rather than conscious rats, they are not considered in analyzing gastric motility, e.g., rate of emptying of stomach contents into the duodenum. However, the studies indicate that absorption of glucose from the duodenum into the blood was not delayed by amylin. […] In anesthetized rats, a segment of small bowel, still connected to the animal via its blood supply, was exteriorized and cannulae inserted so that the small bowel could be perfused with glucosed solutions of controlled composition. The animals were cannulated also via an artery (for blood sampling) and via a vein (for infusion or amylin, insulin and glucose). The lumen was perfused with a tritium-labelled glucose solution. The passage of glucose from the lumen of the gut into the rat was measured by the appearance of the tritium label in the plasma. The supposition that such appearance of tritium in the plasma was indeed measuring glucose uptake from the gut was tested by administration of the glucose transport blocker, phloridzin. […] To ensure that the glucose gradient between the gut lumen and plasma remained constant, during amylin infusions, plasma glucose was “clamped” by an infusion of glucose that was varied in response to changes in plasma glucose.

Series [7] deals with gastric emptying. Kind of series: Gastric emptying of Phenol Red methylcellulose gel after gavage (Example 5). The series is classed as in vivo, rat. Conditions: for ED50 for suppression of gastric emptying: diabetic BB rats fasted 6 hours; for ED50 for change in gastric emptying: normal HSD rats fasted 20 hours. The method, then: When BB rats were confirmed as being diabetic by glycosuria on at least 2 days, they were treated with daily s.c. injections of ultralente recombinant human insulin (Humulin-U, Eli Lilly, Indianapolis). Insulin therapy was aimed at maintaining glucose but minimizing ketones in the urine, in order to avoid hypoglycemic deaths. In fact, glycosuria was present in 88% of measurements and ketonuria in 52%. The average duration of diabetes was 53±5 days, and daily insulin requirements were 4.7±0.3 units. All animals were housed at […] in a 12:12 hour light:dark cycle (experiments being performed during the light cycle) and were fed and watered ad libitum (Diet LM-485, Teklad, Madison, Wis.).
The determination of gastric emptying by the method described below has usually been performed after a fast of ˜20 hours to ensure that the stomach contained no chyme that would interfere with spectrophotomertric absorbance measurements. However, diabetic rats treated with Ultralente insulin could not be fasted for 20 hours. […] Such animals were therefore fasted for only 6 hours before measurement of gastric emptying. Non-diabetic rates were deprived of food for either 6 or 20 hours prior to experimentation. We have note that even non-diabetic BB rats have elevated glycated hemoglobin concentrations, possibly indicating subclinical insulitis. Both non-diabetic Harlan Sprague Dawley rats and non-diabetic BB rats animals were therefor use in comparisons with diabetic rats. Thus there were 5 treatment groups:
Twenty minutes after gavage, rats were anesthetized using 5% halothane, the stomach exposed and clamped at the pyloric and lower esophageal spincters using artery forceps, removed and opened into an alkaline solution which was made up to a fixed volume. Stomach content was derived from the intensity of the phenol red in the alkaline solution, measured by absorbance at a wavelength of 560 nm. In most experiments, the stomach was clear. In other experiments, particulate gastric contents were centrifuged to clear the solution for absorbance measurements. Where the diluted gastric contents remained turbid, the spectroscopic absorbance due to Phenol Red was derived as the difference between that present in alkaline vs acidified diluent. In separate experiments on 7 rats, the stomach and small intestine were both excised and opened into an alkaline solution. The quantity of phenol red that could be recovered from the upper gastrointestinal tract within 20 minutes of gavage was 89±4%. To account for a maximal dye recovery of less than 100%, stomach contents remaining after 20 min were expressed as a fraction of the gastric contents recovered from control rats sacrificed immediately after gavage in the same experiment.
Pairwise comparisons were performed using one-way analysis of variance and the Student-Newman-Keuls multiple comparisons test (Instat v2.0, GraphPad Software, San Diego) using P<0.05 as the level of significance.

Series [8] deals with plasma renin activity. Conditions: intact rats, given subcutaneously. An excerpt:
This is important because lowered blood pressure is a strong stimulus to renin release.

SMILES strings stand for the structures. Positions of bridges follow the written chain, without caps; N, C: chain ends. Residues, ends and D or L forms follow the SMILES beside them.

For orientation: EC50 means the concentration needed to bring the measured effect to its halfway point. The low end stands for a more potent agent, the high end for a less potent agent. The term Cmax denotes the peak of the concentration-time curve.

`CC[C@H](C)[C@H](NC(=O)[C@H](C)NC(=O)CNC(=O)[C@H](Cc1ccccc1)NC(=O)[C@H](CC(N)=O)NC(=O)[C@H](CC(N)=O)NC(=O)[C@H](CO)NC(=O)[C@H](CO)NC(=O)[C@H](Cc1c[nH]cn1)NC(=O)[C@@H](NC(=O)[C@H](CC(C)C)NC(=O)[C@H](Cc1ccccc1)NC(=O)[C@H](CC(N)=O)NC(=O)[C@H](C)NC(=O)[C@H](CC(C)C)NC(=O)[C@H](CCCNC(=N)N)NC(=O)[C@H](CCC(N)=O)NC(=O)[C@@H](NC(=O)[C@H](C)NC(=O)[C@@H]1CCCCNC(=O)C[C@H](NC(=O)[C@@H](N)CCCCN)C(=O)N[C@@H](CC(N)=O)C(=O)N[C@@H]([C@@H](C)O)C(=O)N[C@@H](C)C(=O)N[C@@H]([C@@H](C)O)C(=O)N1)[C@@H](C)O)C(C)C)C(=O)N[C@@H](CC(C)C)C(=O)N[C@@H](CO)C(=O)N[C@@H](CO)C(=O)N[C@H](C(=O)N[C@@H](CC(N)=O)C(=O)N[C@H](C(=O)NCC(=O)N[C@@H](CO)C(=O)N[C@@H](CC(N)=O)C(=O)N[C@H](C(=O)N[C@@H](Cc1ccc(O)cc1)C(N)=O)[C@@H](C)O)C(C)C)[C@@H](C)O` [^2,7Cyclo-[^2Asp, ^7Lys]-h-Amylin, ^2,7Cyclo-[^2Asp,^7Lys]-h-Amylin] (H-KDNTATKATQRLANFLVHSSNNFGAILSSTNVGSNTY-NH2; lactam 2-7; N-terminus and C-terminus assumed) yielded an EC50 in series [1] of 6.62 nM. That is a single-digit nanomolar value.
Consider `CC(C)C[C@H](NC(=O)[C@H](CC(N)=O)NC(=O)[C@H](CC(N)=O)NC(=O)[C@H](CO)NC(=O)[C@H](CO)NC(=O)[C@H](CCCNC(=N)N)NC(=O)[C@@H](NC(=O)[C@H](CC(C)C)NC(=O)[C@H](Cc1ccccc1)NC(=O)[C@H](CC(N)=O)NC(=O)[C@H](C)NC(=O)[C@H](CC(C)C)NC(=O)[C@H](CCCNC(=N)N)NC(=O)[C@H](CCC(N)=O)NC(=O)[C@@H](NC(=O)[C@H](C)NC(=O)[C@@H]1CSSC[C@H](NC(=O)[C@@H](N)CCCCN)C(=O)N[C@@H](CC(N)=O)C(=O)N[C@@H]([C@@H](C)O)C(=O)N[C@@H](C)C(=O)N[C@@H]([C@@H](C)O)C(=O)N1)[C@@H](C)O)C(C)C)C(=O)NCC(=O)N1CCC[C@H]1C(=O)N[C@H](C(=O)N[C@@H](CC(C)C)C(=O)N1CCC[C@H]1C(=O)N1CCC[C@H]1C(=O)N[C@H](C(=O)N[C@@H](CC(N)=O)C(=O)N[C@H](C(=O)NCC(=O)N[C@@H](CO)C(=O)N[C@@H](CC(N)=O)C(=O)N[C@H](C(=O)N[C@@H](Cc1ccc(O)cc1)C(N)=O)[C@@H](C)O)C(C)C)[C@@H](C)O)C(C)C` [amylin], for which, in series [2], the “Lowering of plasma calcium” value was “up to 20%”. Further, in series [3] (amylin infusion 50, 100 and 300 pmol/kg/min, glucose 1 gm/kg by mouth), the “Plasma glucose after oral glucose load” value is listed as “reduced both the rate of rise in plasma glucose as well as the peak plasma glucose”. The “Effects on plasma lactate” value in series [3] (oral glucose load) is “unremarkable”. The compound also showed a maximum concentration (Cmax) in series [4] of 0.076 nM. Moreover, in series [5] (prolonged increase from about 6), the “Plasma glucose after injection” value was ~11 mM. Further, the “Plasma lactate after injection” value in series [5] (rise from about 0.5, i.v. and s.c.) was ~1.5 mM. In addition, in series [6] (amylin infusion 0.35 nm/kg/min, glucose 1 g/kg), the “Absorption of glucose from the duodenum into the blood” value was “not delayed”. Besides, the “Rate of transit of labelled glucose from small bowel lumen into plasma” value in series [6] (perfused exteriorized small bowel segment) is reported as “no effect”. The “ED50 of inhibition of gastric emptying” value in series [7] (both normal and diabetic rats (summary)) is ~1 µg. In addition, the “ED50 for suppression of gastric emptying” value was found to be 2.3 nmol/gk in series [7] (s.c.) and 2.2 µg in series [7] (s.c., ±0.18 log units). Further, the “Dye recoverable from stomach 20 min after gavage” value is recorded as “the same as that recoverable immediately after gavage” in series [7] (diabetic rats, 10 μg s.c. (P=0.14)) and “the same as that recoverable immediately after gavage” in series [7] (normal HSD rats, 1 μg s.c. (P=0.22)). The “Dose restoring gastric emptying in a diabetic rat to the rate of normal rats not administered amylin” value in series [7] (estimated from fitted curves of FIG. 14) is ~2 µg. In addition, the “Plasma concentrations 50% effective in inhibiting gastric emptying” value in series [7] (inferred from plasma profile after 1 μg s.c.) was “less than 74 pM”. Also, the “ED50 for change in gastric emptying” value in series [7] (s.c.) is 0.60 nmole amylin/kg body weight; in series [7] (s.c. 5 min before gavage, ±0.19 log units) it was 0.43 µg. Moreover, in series [7] (s.c. 5 min before gavage, 0.01-100 μg), the “Effect on gastric emptying (in words)” value is “dose dependent suppression of gastric emptying”. In addition, in series [8], the Plasma renin activity entry is recorded as “markedly increases”.

The record behind these values is patent US7407934B2, “Methods for regulating postprandial blood glucose” (Amylin Pharmaceuticals, Inc., priority 1993, dated 2008).
